# Experimental data as given in US20200171056A1, “SULFONYLUREA COMPOUNDS IN THE TREATMENT OF DISEASE ASSOCIATED WITH UV-INDUCED DAMAGE” (CeMM - Forschungszentrum für Molekulare Medizin GmbH, priority 2017, published 2020).
# Legend:
# Type in all cases: cell-based, human
# CPDs in XPA^Δ/Δ cells = assay: Immunofluorescence for cyclobutane pyrimidine dimers; details: 0.5 mM for 6 hours
# Protocol: (§1) A. Dose-response curve of WT and ΔXPA cells treated with or without 0.5 mM acetohexamide for 6 hours, followed by illudin S treatment. Survival was assessed after 3 days using CellTiter-Glo. B. Colony formation of WT fibroblasts (BJ) and XPA-patient derived fibroblasts (XPA^Δ/Δ) treated with or without 0.5 mM acetohexamide for 6 hours, followed by UV irradiation (as indicated) and then kept in culture for 10 days. C. WT BJ and XPA^Δ/Δ fibroblastoid cells were treated with 0.5 mM acetohexamide for 6 hours, irradiated with 15 J/M^2 and then fixed and immunostained with an anti-cyclobutane pyrimidine dimer (CPD) antibody at the indicated times. Nuclear DNA was counterstained with DAPI. Scale bar, 10 μm. D. Scatter plot displaying the quantification of CPD intensities per nucleus of WT and XPA^Δ/Δ cells in the presence or absence of 0.5 mM acetohexamide, of more than 100 cells. Red lines within each column represent median intensities. A.u.=arbitrary unit.
# For measurement of cyclobutane pyrimidine dimers (CPDs), cells were seeded onto coverslips (VWR) in 5 cm dishes. On the following day, cells were treated as indicated. Next, they were washed twice with PBS and fixed with 4% paraformaldehyde (PFA) for 10 minutes at room temperature (RT), then permeabilized with 0.5% Triton X-100 in PBS for 5 minntes at RT. […] Quantification was performed using CellProfiler.
# WT HAP1 cells = assay: Survival after other DNA damaging agents (MMC, HU, MMS); details: WT HAP1, 0.5 mM for 6 hours, 3 days
# Protocol: A. WT and ΔXPA cells were either treated with DMSO or 0.5 mM acetohexamide for 6 hours. Cell cycle profiles were determined using propidium iodide (P1) staining followed by FACS analysis. B-D. Survival of WT HAP1 cells treated with either DMSO or 0.5 mM acetohexamide for 6 hours, followed by exposure to the indicated DNA damaging agents (MMC: mitomycin C; HU: hydroxyl urea; MMS: methyl methanesulfonate). Survival was assessed after 3 days using CellTitre-Glo. E. Cell viability of WT cells treated either with 0.5 mM acetohexamide or 30 μM N-acetylcysteine (NAC) for 6 hours, followed by 30 J/M^2 UV exposure.
# Dose Responses and UV Treatment Dose-response curves for the DNA damage agents including mitomycin C (MMC), methyl methanesulfonate (MMS), hydroxyurea (HU), neocarzinostatin (NCS) and illudin S were performed in 96-well plates by seeding 1,000 cells/well in triplicates. The next day, compounds at different concentrations were added and 3 days later, cell viability was assessed using Cell Titer-Glo (Promega)
# [1] = system: CPDs in genomic DNA of HAP1 cell lines; assay: Dot blot for cyclobutane pyrimidine dimers; details: HAP1 WT and ΔXPA, 0.5 mM, 15 J/M^2 (FIG. 7C-D)
# Protocol: A. Dose-response curve of WT and ΔXPA cells treated with or without 0.5 mM acetohexamide for the indicated times, followed by UV irradiation. Survival was assessed after 3 days, using CellTiter-Glo. […] Error bars indicate SEM (n=3). B. Clonogenic survival of WT and ΔXPA cells treated with 0.5 mM acetohexamide for 6 hours or left untreated, then exposed to illudin S for 10 days, as indicated. C. WT and ΔXPA cells treated with or without 0.5 mM acetohexamide for the indicated times, followed by 15 J/M^2 irradiation and analyzed by dot blot for the presence of CPDs in genomic DNA. DNA was counterstained with methylene blue (MB) as a loading control. D. Quantification of the intensities of C.
# The amount of cyclobutane pyrimidine dimers (CPDs) in DNA was quantified using an immuno-dot blot assay with the CPD-specific monoclonal antibody TDM-2 (Cosmo Bio). Genomic DNA was extracted using QIAamp DNA mini kit (Qiagen), then the genomic DNA was denatured in TE buffer (10 mM Tris-CL and 1 mM EDTA, pH 7.5) by boiling for 5 minutes and subsequently 50 ng of genomic DNA was dot-blotted in triplicate onto a nitrocellulose membrane. The DNA was then fixed by baking the membrane for 2 hours at 80° C. […] Signals were detected using Amersham ECL (GE Healthcare Life Sciences DNA was counterstained with methylene blue as a loading control.
# WT and ΔXPA cells = assay: Survival after illudin S treatment; details: 0.5 mM acetohexamide for 6 hours, then illudin S (FIG. 2A, 7B)
# Protocol: as §1
# A. Dose-response curve of WT and ΔXPA cells treated with or without 0.5 mM acetohexamide for the indicated times, followed by UV irradiation. Survival was assessed after 3 days, using CellTiter-Glo. […] WT and ΔXPA cells treated with or without 0.5 mM acetohexamide for the indicated times, followed by 15 J/M^2 irradiation and analyzed by dot blot for the presence of CPDs in genomic DNA. […] D. Quantification of the intensities of C. […]
smiles,measurement,setting,value
CC(=O)c1ccc(S(=O)(=O)NC(=O)NC2CCCCC2)cc1 [acetohexamide],initial amount of CPDs,CPDs in XPA^Δ/Δ cells; 15 J/M^2 (FIG. 2C-D),did not affect the initial amount of CPDs
same,clearance of CPDs,"CPDs in XPA^Δ/Δ cells; XPA^Δ/Δ cells, 15 J/M^2, 24 hours post UV (FIG. 2C-D)",led to the clearance of CPDs in XPA^Δ/Δ cells
same,cellular survival following exposure to HU,WT HAP1 cells; then hydroxyurea,did not increase cellular survival
same,cellular survival following exposure to MMS,WT HAP1 cells; then methyl methanesulfonate,did not increase cellular survival
same,cellular survival following exposure to MMC,WT HAP1 cells; then mitomycin C,did not increase cellular survival
same,"clearance of CPDs, dot blot",[1],same observation was also made for HAP1 cell lines
same,cellular survival following illudin S treatment,WT and ΔXPA cells,could increase cellular survival following illudin S treatment
